Test results from the NIST ThermoML archive (doi:10.1016/j.tca.2007.03.018).
± gives the expanded uncertainty stated by the source.

Tests used:
[1] = molar heat capacity at constant pressure; details: 101.33 kPa
[2] = for molar entropy: 101.33 kPa; for vapor or sublimation pressure: Knudsen effusion
[3] = Molar enthalpy of transition or fusion

C1C2CC3CC1CC(C14CC5CC(CC(C5)C1)C4)(C2)C3 [1,1'-biadamantane]
Details	molar entropy, [2] [J/K/mol]	molar heat capacity at constant pressure, [1] [J/K/mol]	vapor or sublimation pressure, [2] [kPa]
5 K, Crystal 3, Small (less than 1 g) adiabatic calorimetry	0.123 ± 0.026	0.4412 ± 0.024	–
10 K, Crystal 3, Small (less than 1 g) adiabatic calorimetry	1.008 ± 0.049	3.035 ± 0.076	–
20 K, Crystal 3, Small (less than 1 g) adiabatic calorimetry	6.713 ± 0.19	16 ± 0.26	–
30 K, Crystal 3, Small (less than 1 g) adiabatic calorimetry	16.03 ± 0.37	30.58 ± 0.32	–
40 K, Crystal 3, Small (less than 1 g) adiabatic calorimetry	26.5 ± 0.47	42.31 ± 0.28	–
50 K, Crystal 3, Small (less than 1 g) adiabatic calorimetry	37.01 ± 0.56	52.05 ± 0.33	–
60 K, Crystal 3, Small (less than 1 g) adiabatic calorimetry	47.28 ± 0.64	60.95 ± 0.37	–
70 K, Crystal 3, Small (less than 1 g) adiabatic calorimetry	57.32 ± 0.71	69.55 ± 0.42	–
80 K, Crystal 3, Small (less than 1 g) adiabatic calorimetry	67.2 ± 0.79	78.54 ± 0.47	–
90 K, Crystal 3, Small (less than 1 g) adiabatic calorimetry	76.98 ± 0.89	87.69 ± 0.52	–
100 K, Crystal 3, Small (less than 1 g) adiabatic calorimetry	86.7 ± 0.96	97.04 ± 0.57	–
110 K, Crystal 3, Small (less than 1 g) adiabatic calorimetry	96.4 ± 1	106.6 ± 0.6	–
120 K, Crystal 3, Small (less than 1 g) adiabatic calorimetry	106.1 ± 1.1	116.4 ± 0.7	–
130 K, Crystal 3, Small (less than 1 g) adiabatic calorimetry	115.8 ± 1.1	126.3 ± 0.7	–
140 K, Crystal 3, Small (less than 1 g) adiabatic calorimetry	125.5 ± 1.3	136.4 ± 0.7	–
150 K, Crystal 3, Small (less than 1 g) adiabatic calorimetry	135.2 ± 1.3	146.7 ± 0.8	–
160 K, Crystal 3, Small (less than 1 g) adiabatic calorimetry	145.1 ± 1.3	157.3 ± 0.8	–
170 K, Crystal 3, Small (less than 1 g) adiabatic calorimetry	155 ± 1.5	168.2 ± 0.9	–
180 K, Crystal 3, Small (less than 1 g) adiabatic calorimetry	164.9 ± 1.5	179.3 ± 1	–
190 K, Crystal 3, Small (less than 1 g) adiabatic calorimetry	174.9 ± 1.7	190.7 ± 1.1	–
200 K, Crystal 3, Small (less than 1 g) adiabatic calorimetry	184.9 ± 1.7	202.7 ± 1.1	–
210 K, Crystal 3, Small (less than 1 g) adiabatic calorimetry	195.1 ± 1.7	214.7 ± 1.2	–
220 K, Crystal 3, Small (less than 1 g) adiabatic calorimetry	205.4 ± 1.9	227.1 ± 1.2	–
230 K, Crystal 3, Small (less than 1 g) adiabatic calorimetry	215.8 ± 1.9	240 ± 1.3	–
240 K, Crystal 3, Small (less than 1 g) adiabatic calorimetry	226.3 ± 2	253.4 ± 1.3	–
250 K, Crystal 3, Small (less than 1 g) adiabatic calorimetry	237 ± 2.1	267.7 ± 1.4	–
260 K, Crystal 3, Small (less than 1 g) adiabatic calorimetry	247.6 ± 2.2	281.1 ± 1.4	–
270 K, Crystal 3, Small (less than 1 g) adiabatic calorimetry	258.5 ± 2.2	295.3 ± 1.5	–
273.15 K, Crystal 3, Small (less than 1 g) adiabatic calorimetry	262.1 ± 2.2	299.8 ± 1.6	–
280 K, Crystal 3, Small (less than 1 g) adiabatic calorimetry	269.5 ± 2.3	309.6 ± 1.6	–
290 K, Crystal 3, Small (less than 1 g) adiabatic calorimetry	280.6 ± 2.4	324 ± 1.7	–
298.15 K, Crystal 3, Small (less than 1 g) adiabatic calorimetry	289.9 ± 2.4	335.3 ± 1.7	–
300 K, Crystal 3, Small (less than 1 g) adiabatic calorimetry	291.9 ± 2.4	338 ± 1.8	–
310 K, Crystal 3, Small (less than 1 g) adiabatic calorimetry	303.2 ± 2.6	352.8 ± 1.8	–
320 K, Crystal 3, Small (less than 1 g) adiabatic calorimetry	314.6 ± 2.6	366.5 ± 1.9	–
330 K, Crystal 3, Small (less than 1 g) adiabatic calorimetry	326.1 ± 2.8	378.2 ± 1.9	–
336.3 K, Crystal 2, Small (less than 1 g) adiabatic calorimetry	336.8 ± 2.9	385 ± 1.9	–
336.3 K, Crystal 3, Small (less than 1 g) adiabatic calorimetry	333.4 ± 2.8	385 ± 1.9	–
340 K, Crystal 2, Small (less than 1 g) adiabatic calorimetry	340 ± 2.9	389 ± 2	–
350 K, Crystal 2, Small (less than 1 g) adiabatic calorimetry	352.4 ± 2.9	400 ± 2	–
360 K, Crystal 2, Small (less than 1 g) adiabatic calorimetry	362.8 ± 3.1	412 ± 2	–
370 K, Crystal 2, Small (less than 1 g) adiabatic calorimetry	374.3 ± 3.1	424 ± 2	–
380 K, Crystal 2, Large sample (1 g) DSC	385.8 ± 9	437 ± 11	–
390 K, Crystal 2, Large sample (1 g) DSC	397.3 ± 9.2	450 ± 11	–
392.77 K, Crystal 2	–	–	0.0005447 ± 3.3e-05
398 K, Crystal 2	–	–	0.0008576 ± 5.3e-05
400 K, Crystal 2, Large sample (1 g) DSC	408.8 ± 9.5	463 ± 11	–
402.91 K, Crystal 2	–	–	0.001308 ± 8e-05
407.9 K, Crystal 2	–	–	0.001881 ± 0.00012
410 K, Crystal 2, Large sample (1 g) DSC	420.4 ± 9.8	477 ± 12	–
412.88 K, Crystal 2	–	–	0.002772 ± 0.00017
417.8 K, Crystal 2, Large sample (1 g) DSC	429.5 ± 10	487 ± 12	–
420 K, Crystal 2, Large sample (1 g) DSC	432.1 ± 10	491 ± 12	–
422.86 K, Crystal 2	–	–	0.006026 ± 0.00037
427.75 K, Crystal 2	–	–	0.00828 ± 0.00051
430 K, Crystal 2, Large sample (1 g) DSC	444 ± 10	505 ± 12	–
432.81 K, Crystal 2	–	–	0.01195 ± 0.00073
437.82 K, Crystal 2	–	–	0.01674 ± 0.001
440 K, Crystal 2, Large sample (1 g) DSC	456 ± 11	520 ± 12	–
442.66 K, Crystal 2	–	–	0.02466 ± 0.0015
450 K, Crystal 2, Large sample (1 g) DSC	467 ± 12	535 ± 13	–
460 K, Crystal 2, Large sample (1 g) DSC	479 ± 12	551 ± 13	–
470 K, Crystal 2, Large sample (1 g) DSC	491 ± 12	567 ± 14	–
480 K, Crystal 2, Large sample (1 g) DSC	503 ± 12	582 ± 15	–
490 K, Crystal 2, Large sample (1 g) DSC	516 ± 13	598 ± 15	–
500 K, Crystal 2, Large sample (1 g) DSC	528 ± 13	614 ± 15	–
509.6 K, Crystal 1, Large sample (1 g) DSC	542 ± 14	629 ± 16	–
509.6 K, Crystal 2, Large sample (1 g) DSC	540 ± 14	629 ± 16	–
510 K, Crystal 1, Large sample (1 g) DSC	543 ± 14	630 ± 16	–
520 K, Crystal 1, Large sample (1 g) DSC	555 ± 14	646 ± 16	–
530 K, Crystal 1, Large sample (1 g) DSC	568 ± 15	662 ± 16	–
535 K, Crystal 1, Large sample (1 g) DSC	574 ± 15	669 ± 16	–
540 K, Crystal 1, Large sample (1 g) DSC	580 ± 15	677 ± 17	–
545 K, Crystal 1, Large sample (1 g) DSC	586 ± 15	685 ± 17	–
550 K, Crystal 1, Large sample (1 g) DSC	593 ± 15	693 ± 17	–
555 K, Crystal 1, Large sample (1 g) DSC	599 ± 16	701 ± 17	–
560 K, Crystal 1, Large sample (1 g) DSC	605 ± 16	709 ± 17	–

Details	Molar enthalpy of transition or fusion, Crystal 1, DSC [kcal/mol]	Molar enthalpy of transition or fusion, Crystal 2, DSC [kcal/mol]	Molar enthalpy of transition or fusion, Crystal 3, Adiabatic calorimetry [kcal/mol]	Triple point temperature, Crystal 1, DTA [K]	Triple point temperature, Crystal 2, DTA [K]	Triple point temperature, Crystal 3 [K]
[2]	–	–	–	561 ± 1	509.6 ± 0.6	336.3 ± 0.3
[3]	16.7 ± 2.39	0.311 ± 0.0239	0.276 ± 0.00478	–	–	–
